Type in all cases: biochemical
In assay [1] the target is T1, MMP-2 (Homo sapiens, UniProt P08253).
T1 sequence (P08253 110-660): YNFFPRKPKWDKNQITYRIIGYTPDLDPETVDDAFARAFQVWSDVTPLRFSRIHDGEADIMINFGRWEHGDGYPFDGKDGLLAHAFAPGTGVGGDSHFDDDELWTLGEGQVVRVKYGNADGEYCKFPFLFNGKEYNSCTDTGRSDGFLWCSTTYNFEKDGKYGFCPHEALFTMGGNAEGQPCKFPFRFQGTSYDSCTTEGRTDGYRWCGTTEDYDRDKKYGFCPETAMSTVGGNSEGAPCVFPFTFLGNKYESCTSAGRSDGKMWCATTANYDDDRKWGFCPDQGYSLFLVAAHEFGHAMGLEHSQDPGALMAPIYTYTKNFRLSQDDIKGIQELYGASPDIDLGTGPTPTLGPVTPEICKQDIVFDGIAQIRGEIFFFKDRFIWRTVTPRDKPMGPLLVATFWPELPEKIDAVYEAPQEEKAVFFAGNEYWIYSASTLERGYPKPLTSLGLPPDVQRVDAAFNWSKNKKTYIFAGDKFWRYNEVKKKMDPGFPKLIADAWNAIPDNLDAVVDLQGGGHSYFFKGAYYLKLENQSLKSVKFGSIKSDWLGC
The assay can be described thus: MMP inhibition fluorimetric assay (pro-fluorescing peptide substrate), MMP-2. The protocol: (§1) Inhibitory activities were determined by a fluorimetric assay, where a pro-fluorescing peptide was used as substrate of MMP, and the fluorogenic activity of its cleavage product was measured after co-incubation with test compounds.

Assay [2] has as its target MMP-8 (Homo sapiens, UniProt P22894). The experiment in a line: MMP inhibition fluorimetric assay (pro-fluorescing peptide substrate), MMP-8. As to the method: as §1
Assay [3] deals with MMP-9 (Homo sapiens, UniProt P14780). The experiment in a line: MMP inhibition fluorimetric assay (pro-fluorescing peptide substrate), MMP-9. The protocol:
as §1

Broadly, the IC50 is the point on the concentration scale where inhibition reaches its midpoint. A higher IC50 goes with weaker potency. Broadly, the inhibition is how much of the control response was suppressed. A low value points to a response near the control.

MMP-8, sequence (P22894 101-467, species assumed): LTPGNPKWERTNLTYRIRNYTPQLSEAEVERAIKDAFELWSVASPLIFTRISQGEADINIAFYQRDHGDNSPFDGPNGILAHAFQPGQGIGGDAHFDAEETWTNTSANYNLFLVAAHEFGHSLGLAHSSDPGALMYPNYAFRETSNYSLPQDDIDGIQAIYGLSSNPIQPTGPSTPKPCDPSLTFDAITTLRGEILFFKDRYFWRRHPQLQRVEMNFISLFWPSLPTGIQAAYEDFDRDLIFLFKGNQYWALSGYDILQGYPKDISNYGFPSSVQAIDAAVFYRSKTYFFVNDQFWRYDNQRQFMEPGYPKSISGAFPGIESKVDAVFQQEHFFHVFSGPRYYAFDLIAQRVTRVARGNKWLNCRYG
MMP-9, sequence (P14780 94-707, species assumed): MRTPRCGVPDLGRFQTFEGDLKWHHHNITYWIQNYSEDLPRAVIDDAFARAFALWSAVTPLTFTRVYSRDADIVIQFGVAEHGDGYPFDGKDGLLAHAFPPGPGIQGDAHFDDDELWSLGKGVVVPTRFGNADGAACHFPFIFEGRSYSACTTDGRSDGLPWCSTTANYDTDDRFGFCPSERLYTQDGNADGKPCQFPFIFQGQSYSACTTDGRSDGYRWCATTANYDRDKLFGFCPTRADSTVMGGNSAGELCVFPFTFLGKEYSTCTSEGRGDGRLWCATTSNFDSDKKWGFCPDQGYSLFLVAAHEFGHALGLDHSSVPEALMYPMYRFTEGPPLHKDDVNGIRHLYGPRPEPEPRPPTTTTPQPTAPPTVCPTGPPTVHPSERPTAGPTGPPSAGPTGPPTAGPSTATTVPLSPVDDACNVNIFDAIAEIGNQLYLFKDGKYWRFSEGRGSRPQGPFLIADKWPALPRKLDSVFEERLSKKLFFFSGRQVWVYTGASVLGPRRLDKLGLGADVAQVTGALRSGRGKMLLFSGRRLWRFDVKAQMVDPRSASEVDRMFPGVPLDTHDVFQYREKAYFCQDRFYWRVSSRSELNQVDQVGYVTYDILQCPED

For the compound `NC(=O)c1ccc(-c2ccc(C(=O)CC3(O)C(=O)NC(=O)NC3=O)cc2)cc1` [BAM], the IC50 in assay [1] is 0.0871 µM; in assay [2], 0.589 µM; in assay [3], 1.82 µM. The “selectivity towards MMP-2, as compared to MMP-9” value in assay [1] (MMP-2 vs MMP-9) is on record as > 20.
In the case of `O=C1NC(=O)C(O)(CC(=O)c2ccc(-c3ccccc3)cc2)C(=O)N1` [BAR], the IC50 is 0.182 µM in assay [1], 0.263 µM in assay [2] and 0.513 µM in assay [3].
Take `O=C1NC(=O)C(O)(CC(=O)c2ccc(-c3cccc(Cl)c3)cc2)C(=O)N1` [BCL]: the IC50 in assay [1] is 60.3 µM; in assay [2] it was 4.47 µM; in assay [3] it was 20 µM.
Consider `O=c1[nH]c(=O)c2cc(-c3ccccc3)nnc2[nH]1` [compound 1], for which the inhibition at 100 µM in assay [1] came out at 0%; in assay [2] it was 0%; in assay [3] it was 5%.
Regarding `O=c1[nH]c(=O)c2cc(-c3ccc(C(F)(F)F)cc3)nnc2[nH]1` [compound 2], the inhibition at 100 µM in assay [1] turned out to be 12%; in assay [2] it was 14%; in assay [3] it was 27%.
Turning to `O=C1NC(=O)C(O)(CC(=O)c2ccccc2)C(=O)N1` [compound 3], in assay [1], 100 µM produced 0% inhibition. Besides, the IC50 in assay [2] was 42.7 µM; in assay [3] it was 44.7 µM.
Take `O=C1NC(=O)C(O)(CC(=O)c2ccc(C(F)(F)F)cc2)C(=O)N1` [compound 4]: the IC50 is 38.9 µM in assay [1] and 8.13 µM in assay [2]. Also, the inhibition at 100 µM in assay [3] was found to be 51%.
For the compound `COc1ccc(C(=O)CC2(O)C(=O)NC(=O)NC2=O)cc1` [compound 5], the IC50 in assay [1] was 21.4 µM; in assay [2], 6.76 µM; in assay [3], 12.9 µM.
In the case of `O=C1NC(=O)C(O)(CC(=O)c2ccc([N+](=O)[O-])cc2)C(=O)N1` [compound 6], the inhibition at 100 µM in assay [1] was found to be 0%; in assay [3], 8%. The compound further had an IC50 in assay [2] of 631 µM.

Source of the values: PMC3187794, “Insights into the Complex Formed by Matrix Metalloproteinase-2 and Alloxan Inhibitors: Molecular Dynamics Simulations and Free Energy Calculations” (PLoS ONE, 2011).
